Values quoted from earlier work as cited in patent publication US20220288147A1, “GINSENG COMPOSITION AND USE THEREOF AS A MEDICAMENT” (BOTALYS SA, priority 2019, published 2022).

Settings: oral

Compound	Absorption rates of an orally administered dose
CC(C)=CCC[C@](C)(O[C@@H]1O[C@H](CO)[C@@H](O)[C@H](O)[C@H]1O)[C@H]1CC[C@]2(C)[C@@H]1[C@H](O)C[C@@H]1[C@@]3(C)CC[C@H](O)C(C)(C)[C@@H]3[C@@H](O[C@@H]3O[C@H](CO)[C@@H](O)[C@H](O)[C@H]3O)C[C@]12C [Rg1]	≥ 0.1%
CC(C)=CCC[C@](C)(O)[C@H]1CC[C@]2(C)[C@@H]1[C@H](O)C[C@@H]1[C@@]3(C)CC[C@H](O)C(C)(C)[C@@H]3[C@@H](O[C@@H]3O[C@H](CO)[C@@H](O)[C@H](O)[C@H]3O[C@@H]3O[C@@H](C)[C@H](O)[C@@H](O)[C@H]3O)C[C@]12C [Rg2]	≥ 1.9%
